Reference: US20080096906A1, “AMINOMETHYL-2-IMIDAZOLES” (priority 2006, published 2008)
pKd, pKi: −log10 of the molar value.

Target: TAAR1 (Mus musculus, UniProt Q923Y8)
Test: Radioligand binding to TAAR1 on membranes of stably transfected HEK293 cells
Experimental: The ability of the compounds of the present invention to bind to TAAR1 was investigated in accordance with the test given hereinafter.
The Expand High Fidelity PCR System (Roche Diagnostics) was used with 1.5 mM Mg^2+ and purified PCR products were cloned into pCR2.1-TOPO cloning vector (Invitrogen) following the instructions of the manufacturer. PCR products were subcloned into the pIRESneo2 vector (BD Clontech, Palo Alto, Calif.), and expression vectors were sequence verified before introduction in cell lines.
For the generation of stably transfected cell lines HEK293 cells were transfected with the pIRESneo2 expression plasmids containing the TAAR coding sequences (described above) with Lipofectamine 2000 (Invitrogen) according to the instructions of the manufacturer, and 24 hours post transfection the culture medium was supplemented with 1 mg/ml G418 (Sigma, Buchs, Switzerland). After a culture period of about 10 days, clones were isolated, expanded and tested for responsiveness to trace amines (all compounds purchased from Sigma) with the cAMP Biotrak Enzyme immunoassay (EIA) System (Amersham) following the non-acetylation EIA procedure provided by the manufacturer.
Cells at confluence were rinsed with ice-cold phosphate buffered saline without Ca^2+ and Mg^2+ containing 10 mM EDTA and pelleted by centrifugation at 1000 rpm for 5 min at 4° C. The pellet was then washed twice with ice-cold phosphate buffered saline and cell pellet was frozen immediately by immersion in liquid nitrogen and stored until use at −80° C. The cell pellet was then suspended in 20 ml HEPES-NaOH (20 mM), pH 7.4 containing 10 mM EDTA, and homogenized with a Polytron (PT 3000, Kinematica) at 10,000 rpm for 10 seconds. The homogenate was centrifuged at 48,000×g for 30 minutes at 4° C. and the pellet resuspended in 20 ml HEPES-NaOH (20 mM), pH 7.4 containing 0.1 mM EDTA (buffer A), and homogenized with a Polytron at 10,000 rpm for 10 seconds. The homogenate was then centrifuged at 48,000×g for 30 minutes at 4° C. and the pellet resuspended in 20 ml buffer A, and homogenized with a Polytron at 10,000 rpm for 10 seconds. Protein concentration was determined by the method of Pierce (Rockford, Ill.). The homogenate was then centrifuged at 48,000×g for 10 minutes at 4° C., resuspended in HEPES-NaOH (20 mM), pH 7.0 including MgCl2 (10 mM) and CaCl2 (2 ml) (buffer B) at 200 μg protein per ml and homogenized with a Polytron at 10,000 rpm for 10 seconds.
Binding assay was performed at 4° C. in a final volume of 1 ml, and with an incubation time of 30 minutes. […] Non-specific binding was defined as the amount of [^3H]-rac-2-(1,2,3,4-tetrahydro-1-naphthyl)-2-imidazoline bound in the presence of the appropriate unlabelled ligand (10 μM). Competing ligands were tested in a wide range of concentrations (10 pM-30 μM). […] Each experiment was performed in duplicate. All incubations were terminated by rapid filtration through UniFilter-96 plates (Packard Instrument Company) and glass filter GF/C, pre-soaked for at least 2 h in polyethylenimine 0.3%, and using a Filtermate 96 Cell Harvester (Packard Instrument Company). The tubes and filters were then washed 3 times with 1 ml aliquots of cold buffer B. Filters were not dried and soaked in Ultima gold (45 μl/well, Packard Instrument Company) and bound radioactivity was counted by a TopCount Microplate Scintillation Counter (Packard Instrument Company).

Chain of TAAR1 (Q923Y8 whole entry): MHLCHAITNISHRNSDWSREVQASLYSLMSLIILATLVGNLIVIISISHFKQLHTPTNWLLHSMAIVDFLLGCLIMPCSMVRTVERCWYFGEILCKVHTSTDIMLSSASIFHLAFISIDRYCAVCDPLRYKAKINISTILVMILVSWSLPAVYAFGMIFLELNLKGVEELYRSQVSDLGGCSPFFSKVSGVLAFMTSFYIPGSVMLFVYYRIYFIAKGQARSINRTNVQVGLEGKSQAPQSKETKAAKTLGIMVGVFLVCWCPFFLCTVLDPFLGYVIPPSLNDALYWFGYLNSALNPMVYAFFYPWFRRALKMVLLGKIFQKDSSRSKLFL

| pKi | Compound | pKd (read-out: calculated Kd value of the radioligand, radioligand used at a concentration equal to its Kd, species not stated) |
| --- | --- | --- |
| 7.11 | CC(C)N(Cc1ncc[nH]1)c1cccc(-c2ccccc2)c1 [Example 46, Biphenyl-3-yl-(1H-imidazol-2-ylmethyl)-isopropyl-amine] | – |
| 8.55 | c1ccc(COc2cccc(NCc3ncc[nH]3)c2)cc1 [Example 62, (3-Benzyloxy-phenyl)-(1H-imidazol-2-ylmethyl)-amine] | – |
| 8.70 | CC(C)N(Cc1ncc[nH]1)c1cccc(Cc2ccccc2)c1 [Example 45, (3-Benzyl-phenyl)-(1H-imidazol-2-ylmethyl)-isopropyl-amine] | – |
| 7.95 | CCN(Cc1ncc[nH]1)c1cccc(Oc2ccccc2)c1 [Example 65, Ethyl-(1H-imidazol-2-ylmethyl)-(3-phenoxy-phenyl)-amine] | – |
| 7.60 | CC(C)N(Cc1ncc[nH]1)c1cccc(Oc2cccnc2)c1 [Example 43, (1H-Imidazol-2-ylmethyl)-isopropyl-[3-(pyridin-3-yloxy)-phenyl]-amine] | – |
| 7.09 | CC(C)N(Cc1ncc[nH]1)c1cccc(Oc2ccc(Cl)cc2)c1 [Example 51, [3-(4-Chloro-phenoxy)-phenyl]-(1H-imidazol-2-ylmethyl)-isopropyl-amine] | – |
| 7.05 | Cc1cccc(N(Cc2ncc[nH]2)C(C)C)c1 [Example 39, (1H-Imidazol-2-ylmethyl)-isopropyl-m-tolyl-amine] | – |
| 7.14 | COc1cccc(N(C)Cc2ncc[nH]2)c1 [Example 6, (1H-Imidazol-2-ylmethyl)-(3-methoxy-phenyl)-methyl-amine] | – |
| 7.03 | CC(C)N(Cc1ncc[nH]1)c1ccc(F)cc1 [Example 10, (4-Fluoro-phenyl)-(1H-imidazol-2-ylmethyl)-isopropyl-amine] | – |
| 7.68 | CC(C)N(Cc1ncc[nH]1)c1cccc(OCc2ccccc2)c1 [Example 41, (3-Benzyloxy-phenyl)-(1H-imidazol-2-ylmethyl)-isopropyl-amine] | – |
| 7.58 | CCN(Cc1ncc[nH]1)c1cccc(OCc2ccccc2)c1 [Example 66, (3-Benzyloxy-phenyl)-ethyl-(1H-imidazol-2-ylmethyl)-amine] | – |
| 7.58 | c1ccc(Oc2cccc(NCc3ncc[nH]3)c2)cc1 [Example 61, (1H-Imidazol-2-ylmethyl)-(3-phenoxy-phenyl)-amine] | – |

The next lines start with the molecule.

| Compound | pKi | pKd (read-out: calculated Kd value of the radioligand, radioligand used at a concentration equal to its Kd, species not stated) |
| --- | --- | --- |
| COc1cc(NCc2ncc[nH]2)ccc1Cl [Example 64, (4-Chloro-3-methoxy-phenyl)-(1H-imidazol-2-ylmethyl)-amine] | 7.59 | – |
| CN(Cc1ncc[nH]1)c1ccc(Cl)cc1 [Example 5, (4-Chloro-phenyl)-(1H-imidazol-2-ylmethyl)-methyl-amine] | 7.09 | – |
| COCCN(Cc1ncc[nH]1)c1ccccc1 [Example 21, (1H-Imidazol-2-ylmethyl)-(2-methoxy-ethyl)-phenyl-amine] | 7.09 | – |
| Brc1cccc(NCc2ncc[nH]2)c1 [Example 71, (3-Bromo-phenyl)-(1H-imidazol-2-ylmethyl)-amine] | 7.00 | – |
| Fc1ccc(NCc2ncc[nH]2)cc1Cl [Example 74, (3-Chloro-4-fluoro-phenyl)-(1H-imidazol-2-ylmethyl)-amine] | 7.08 | – |
| CCN(Cc1ncc[nH]1)c1cccc(F)c1 [Example 12, Ethyl-(3-fluoro-phenyl)-(1H-imidazol-2-ylmethyl)-amine] | 7.29 | – |
| CCN(Cc1ncc[nH]1)c1cccc(Cl)c1 [Example 30, (3-Chloro-phenyl)-ethyl-(1H-imidazol-2-ylmethyl)-amine] | 7.44 | – |
| CC(C)N(Cc1ncc[nH]1)c1cc(Cl)cc(Cl)c1 [Example 37] | 7.19 | – |
| c1ccc2c(c1)CCCC2C1=NCCN1 (racemic) [[^3H]-rac-2-(1,2,3,4-tetrahydro-1-naphthyl)-2-imidazoline, reference compound] | – | 7.22 |
| CN(Cc1ncc[nH]1)c1cccc(Cl)c1 [Example 2, (3-Chloro-phenyl)-(1H-imidazol-2-ylmethyl)-methyl-amine] | 7.52 | – |
| Clc1ccc(NCc2ncc[nH]2)cc1Cl [Example K8, (3,4-dichloro-phenyl)-(1H-imidazol-2-ylmethyl)-amine, reference compound] | 7.26 | – |
| Fc1ccc(NCc2ncc[nH]2)cc1F [Example 73, (3,4-Difluoro-phenyl)-(1H-imidazol-2-ylmethyl)-amine] | 7.15 | – |
| CCN(Cc1ncc[nH]1)c1ccc(Cl)c(Cl)c1 [Example 68, (3,4-Dichloro-phenyl)-ethyl-(1H-imidazol-2-ylmethyl)-amine] | 7.48 | – |
